Assay results reported in patent US20250304549A1, “HYDROXYAMIDE DERIVATIVE AND USE THEREOF” (SICHUAN HUIYU PHARMACEUTICAL CO., LTD., priority 2022, published 2025).
Structures can show the parent of a compound that is named as a salt.

Assays:
[1] = target: LSD1 (Homo sapiens (Human), UniProt O60341); assay: In vitro enzyme inhibition assay - LSD1 (HTRF); format: biochemical
[2] = target: pan-HDAC; assay: In vitro enzyme inhibition assay - HDAC (HDAC-Glo I/II), pan-HDAC; format: biochemical
Summary of the method: (§1)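 Inhibition was measured with the HDAC-Glo I/II luminescent assay, testing compound as an 8-point, 5-fold dilution series from a 1 mM DMSO stock. Luminescence (RLU) was normalized to no-inhibitor and no-enzyme controls, and IC50 was derived by four-parameter variable-slope fitting.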

[3] = target: HDAC1 (Homo sapiens (Human), UniProt Q13547); assay: In vitro enzyme inhibition assay - HDAC (HDAC-Glo I/II), HDAC1; format: biochemical; settings: read-out: HDAC IC50 (nM) HDAC 1
Chain of HDAC1 (Q13547 whole entry): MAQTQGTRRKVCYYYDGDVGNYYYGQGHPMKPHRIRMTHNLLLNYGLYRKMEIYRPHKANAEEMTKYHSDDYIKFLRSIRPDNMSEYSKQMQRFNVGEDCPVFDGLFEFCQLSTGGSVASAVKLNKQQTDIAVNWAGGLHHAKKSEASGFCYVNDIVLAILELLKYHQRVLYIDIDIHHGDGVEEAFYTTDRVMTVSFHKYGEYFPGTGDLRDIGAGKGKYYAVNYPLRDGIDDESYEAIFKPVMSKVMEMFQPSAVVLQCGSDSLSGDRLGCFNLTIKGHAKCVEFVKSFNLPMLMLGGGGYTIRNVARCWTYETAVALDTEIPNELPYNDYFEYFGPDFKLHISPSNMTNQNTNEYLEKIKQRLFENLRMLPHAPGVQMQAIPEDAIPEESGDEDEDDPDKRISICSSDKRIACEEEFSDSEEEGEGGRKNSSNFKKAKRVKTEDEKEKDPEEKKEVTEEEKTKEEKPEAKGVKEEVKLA
Summary of the method: as §1

[4] = target: HDAC8 (Homo sapiens (Human), UniProt Q9BY41); assay: In vitro enzyme inhibition assay - HDAC (HDAC-Glo I/II), HDAC8; format: biochemical; settings: read-out: HDAC IC50 (nM) HDAC 8
Chain of HDAC8 (Q9BY41 whole entry): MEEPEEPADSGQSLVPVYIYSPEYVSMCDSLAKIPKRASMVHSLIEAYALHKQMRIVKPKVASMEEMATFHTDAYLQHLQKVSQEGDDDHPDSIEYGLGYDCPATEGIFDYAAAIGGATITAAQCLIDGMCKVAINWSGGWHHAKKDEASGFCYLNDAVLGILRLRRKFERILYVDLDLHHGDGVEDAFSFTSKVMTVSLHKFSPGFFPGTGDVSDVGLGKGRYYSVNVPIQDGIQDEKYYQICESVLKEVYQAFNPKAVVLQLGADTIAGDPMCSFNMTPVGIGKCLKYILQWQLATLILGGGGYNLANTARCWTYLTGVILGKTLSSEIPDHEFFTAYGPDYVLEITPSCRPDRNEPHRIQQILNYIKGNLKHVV
Summary of the method: as §1

[5] = test system: NCI-H1417 cells; assay: In vitro cell inhibition assay - H1417 cell proliferation (CellTiter-Glo); format: cell-based; settings: Homo sapiens, NCI-H1417, H1417 small cell lung cancer cell proliferation
Summary of the method: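 Cells exposed to 8 compound concentrations (5-fold dilutions) in BEGM with 10% FBS for 7 days at 37° C., 5% CO2. Viable cells measured by CellTiter-Glo luminescence; inhibition versus no-inhibitor and no-cell controls, IC50 fitted.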

[6] = test system: NCI-H69 cells; assay: In vitro cell inhibition assay - NCI-H69 cell proliferation (CellTiter-Glo); format: cell-based; settings: Homo sapiens, NCI-H69, H69 small cell lung cancer cell proliferation
Summary of the method: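 NCI-H69 cells seeded at 1×10^3 per well overnight, then given 8 compound concentrations (5-fold dilutions) in RPMI-640 with 20% FBS for 7 days at 37° C., 5% CO2. Viable cells by CellTiter-Glo luminescence; IC50 fitted from inhibition rate versus no-inhibitor and no-cell controls.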

[7] = test system: DU145 cells; assay: In vitro cell inhibition assay - DU145 cell proliferation (CellTiter-Glo); format: cell-based; settings: Homo sapiens, DU-145, Du145 prostate cancer cell proliferation
Summary of the method: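 Viability read-out was CellTiter-Glo luminescence after a 6-day, 37° C exposure of DU145 cells (1×10^3/well, 10% FBS RPMI-640) to 8 compound concentrations in 5-fold steps.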

[8] = test system: NCI-H526 cells; assay: In vitro cell inhibition assay - NCI-H526 cell proliferation (CellTiter-Glo); format: cell-based; settings: Homo sapiens, NCI-H526, 120 h, H526 small cell lung cancer cell proliferation, 5 days
Summary of the method: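 NCI-H526 cells plated at 1×10^3 per well overnight, then treated with 8 concentrations (5-fold dilutions) in RPMI-640 with 10% FBS for 5 days at 37° C., 5% CO2. Viable cells quantified by CellTiter-Glo luminescence; IC50 fitted from inhibition rates relative to no-inhibitor and no-cell controls.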

Structure (SMILES): COc1ccc(-c2cnc(N3CCC(NCc4ccc(/C=C/C(=O)NO)cc4)CC3)c(C#N)c2-c2ccc(C#N)c(F)c2)cc1F [Example 40, (E)-3-(4-(((1-(3-Cyano-4-(4-cyano-3-fluorophenyl)-5-(3-fluoro-4-methoxyphenyl)pyridin-2-yl)piperidin-4-yl)amino)methyl)phenyl)-N-hydroxyacrylamide hydrochloride]
- IC50 [1]: 8.25 nM
- IC50 [2]: 54.4 nM
- IC50 [3]: 108 nM
- IC50 [4]: 392 nM
- IC50 [5]: 65 nM
- IC50 [6]: 194 nM
- IC50 [7]: 1640 nM

Structure (SMILES): N#Cc1ccc(-c2c(-c3ccc4cn[nH]c4c3)cnc(N3CCC(NCc4cnc(/C=C/C(=O)NO)nc4)CC3)c2C#N)cc1F [Example 184, (E)-3-(5-((1-(3-Cyano-4-(4-cyano-3-fluorophenyl)-5-(1H-indazol-6-yl)pyridin-2-yl)piperidin-4-yl)amino)methyl) pyrimidin-2-yl)-N-hydroxyacrylamide formate]
- IC50 [1]: 0.09 nM
- IC50 [2]: 6.58 nM
- IC50 [3]: 1.69 nM
- IC50 [4]: 45.2 nM
- IC50 [5]: 10.2 nM
- IC50 [6]: 8.97 nM
- IC50 [8]: 15.9 nM

Structure (SMILES): COc1ccc(-c2c(OC)cc(N3CCC(NCc4ccc(/C=C/C(=O)NO)cc4)CC3)nc2-c2ccc(C#N)c(F)c2)cc1O [Example 54, (E)-3-(4-(((1-(6-(4-cyano-3-fluorophenyl)-5-(3-hydroxy-4-methoxyphenyl)-4-methoxypyridin-2-yl)piperidin-4-yl)amino)methyl)phenyl)-N-hydroxyacrylamide formate]
- IC50 [1]: 0.62 nM
- IC50 [2]: 34.4 nM
- IC50 [3]: 58.2 nM
- IC50 [4]: 125 nM
- IC50 [5]: 0.8 nM
- IC50 [6]: 248 nM
- IC50 [7]: 1050 nM

Structure (SMILES): COc1ccc(-c2c(OC)cc(N3CCC(N)CC3)nc2-c2ccc(C#N)c(F)c2)cc1OCCNCc1ccc(/C=C/C(=O)NO)cc1 [Example 30, (E)-3-(4-((2-(5-(6-(4-Aminopiperidin-1-yl)-2-(4-cyano-3-fluorophenyl)-4-methoxypyridin-3-yl)-2-methoxyphenoxy)ethyl)amino)methyl)phenyl)-N-hydroxyacrylamide hydrochloride]
- IC50 [1]: 4.25 nM
- IC50 [2]: 18.1 nM
- IC50 [3]: 39.9 nM
- IC50 [4]: 65.8 nM
- IC50 [5]: 206 nM
- IC50 [6]: 1500 nM
- IC50 [7]: 2830 nM

Structure (SMILES): COc1ccc(-c2cnc(N3CCC(NCc4ccc(/C=C/C(=O)NO)c(F)c4)CC3)c(C#N)c2-c2ccc(C#N)c(F)c2)cc1O [Example 200, (E)-3-(4-(((1-(3-Cyano-4-(4-cyano-3-fluorophenyl)-5-(3-hydroxy-4-methoxyphenyl)pyridin-2-yl)piperidin-4-yl)amino)methyl)-2-fluorophenyl)-N-hydroxyacrylamide formate]
- IC50 [1]: 0.45 nM
- IC50 [2]: 4.18 nM
- IC50 [3]: 2.95 nM
- IC50 [4]: 127 nM
- IC50 [5]: 2.27 nM
- IC50 [6]: 5.16 nM
- IC50 [8]: 4.1 nM

Structure (SMILES): COc1ccc(-c2cnc(N3CCC(NCc4ccc(CCC(=O)NO)nc4)CC3)c(C#N)c2-c2ccc(C#N)c(F)c2)cc1O [Example 191, 3-(5-(((1-(3-Cyano-4-(4-cyano-3-fluorophenyl)-5-(3-hydroxy-4-methoxyphenyl)pyridin-2-yl)piperidin-4-yl)amino)methyl)pyridin-2-yl)-N-hydroxypropanamide formate]
- IC50 [1]: 2.24 nM
- IC50 [2]: 2.17 nM
- IC50 [3]: 0.54 nM
- IC50 [4]: 37.5 nM
- IC50 [5]: 3.38 nM
- IC50 [6]: 24.6 nM
- IC50 [8]: 25.9 nM

Structure (SMILES): N#Cc1ccc(-c2c(-c3ccc4cn[nH]c4c3)cnc(N3CCC(NCc4ccc(/C=C/C(=O)NO)nc4)CC3)c2C#N)cc1F [Example 182, (E)-3-(5-(((1-(3-Cyano-4-(4-cyano-3-fluorophenyl)-5-(1H-indazol-6-yl)pyridin-2-yl)piperidin-4-yl)amino)methyl)pyridin-2-yl)-N-hydroxyacrylamide formate]
- IC50 [1]: 0.09 nM
- IC50 [2]: 3.02 nM
- IC50 [3]: 1.3 nM
- IC50 [4]: 30.1 nM
- IC50 [5]: 9.29 nM
- IC50 [6]: 4.36 nM
- IC50 [8]: 7.04 nM

Structure (SMILES): COc1ccc(-c2cnc(N3CCC(NCc4cnc(/C=C/C(=O)NO)nc4)CC3)c(C)c2-c2ccc(C#N)c(F)c2)cc1O [Example 202, (E)-3-(5-(((1-(4-(4-Cyano-3-fluorophenyl)-5-(3-hydroxy-4-methoxyphenyl)-3-methylpyridin-2-yl)piperidin-4-yl)amino)methyl)pyrimidin-2-yl)-N-hydroxyacrylamide formate]
- IC50 [1]: 74.2 nM
- IC50 [2]: 1.85 nM
- IC50 [3]: 0.88 nM
- IC50 [4]: 9.03 nM
- IC50 [5]: 6.15 nM
- IC50 [6]: 13.6 nM
- IC50 [8]: 4.35 nM

Structure (SMILES): Cc1c(N2CCC(NCc3ccc(/C=C/C(=O)NO)cc3)CC2)ncc(-c2ccc(OCC(C)(C)O)c(O)c2)c1-c1ccc(C#N)c(F)c1 [Example 207, (E)-3-(4-(((1-(4-(4-Cyano-3-fluorophenyl)-5-(3-hydroxy-4-(2-hydroxy-2-methylpropoxy)phenyl)-3-methylpyridin-2-yl)piperidin-4-yl)amino)methyl)phenyl)-N-hydroxyacrylamide hydrochloride]
- IC50 [1]: 6.65 nM
- IC50 [2]: 12.4 nM
- IC50 [3]: 2.51 nM
- IC50 [4]: 170 nM
- IC50 [5]: 9.5 nM
- IC50 [6]: 33.6 nM
- IC50 [8]: 26.6 nM

Structure (SMILES): COc1ccc(-c2cnc(N3CCC(NCc4ccc(OCC(=O)NO)cc4)CC3)c(C#N)c2-c2ccc(C#N)c(F)c2)cc1O [Example 181]
- IC50 [1]: 0.13 nM
- IC50 [2]: 2.11 nM
- IC50 [3]: 0.08 nM
- IC50 [4]: 75.1 nM
- IC50 [5]: 2.93 nM
- IC50 [6]: 13.1 nM
- IC50 [8]: 28.4 nM

Structure (SMILES): CC(C)(O)COc1ccc(-c2cnc(N3CCC(NCc4ccc(/C=C(\F)C(=O)NO)cc4)CC3)c(C#N)c2-c2ccc(C#N)c(F)c2)cc1O [Example 198, (Z)-3-(4-(((1-(3-Cyano-4-(4-cyano-3-fluorophenyl)-5-(3-hydroxy-4-(2-hydroxy-2-methylpropoxy)phenyl)pyridin-2-yl)piperidin-4-yl)amino)methyl)phenyl)-2-fluoro-N-hydroxyacrylamide formate]
- IC50 [1]: 0.4 nM
- IC50 [2]: 6.35 nM
- IC50 [3]: 4.85 nM
- IC50 [4]: 67.2 nM
- IC50 [5]: 0.63 nM
- IC50 [6]: 23.7 nM
- IC50 [8]: 21.2 nM

Structure (SMILES): CC(C)(O)COc1ccc(-c2cnc(N3CCC(NCc4ccc(/C=C/C(=O)NO)cn4)CC3)c(C#N)c2-c2ccc(C#N)c(F)c2)cc1O [Example 205, (E)-3-(6-(((1-(3-Cyano-4-(4-cyano-3-fluorophenyl)-5-(3-hydroxy-4-(2-hydroxy-2-methylpropoxy)phenyl)pyridin-2-yl)piperidin-4-yl)amino)methyl)pyridin-3-yl)-N-hydroxyacrylamide formate]
- IC50 [1]: 1.91 nM
- IC50 [2]: 4.37 nM
- IC50 [3]: 3.08 nM
- IC50 [4]: 100 nM
- IC50 [5]: 6.86 nM
- IC50 [6]: 25.2 nM
- IC50 [8]: 39.2 nM

Structure (SMILES): CC(C)(O)COc1ccc(-c2cnc(N3CCC(NCc4ccc(/C=C/C(=O)NO)c(C#N)c4)CC3)c(C#N)c2-c2ccc(C#N)c(F)c2)cc1O [Example 189, (E)-3-(2-Cyano-4-((1-(3-cyano-4-(4-cyano-3-fluorophenyl)-5-(3-hydroxy-4-(2-hydroxy-2-methylpropoxy)phenyl)pyridin-2-yl)piperidin-4-yl)amino)methyl) phenyl)-N-hydroxyacrylamide formate]
- IC50 [1]: 4.11 nM
- IC50 [2]: 7.8 nM
- IC50 [3]: 13.4 nM
- IC50 [4]: 130 nM
- IC50 [5]: 6.31 nM
- IC50 [6]: 39.2 nM
- IC50 [8]: 27.8 nM
